The assay addresses T1, K-RasG12C (1-169) (Homo sapiens, UniProt P01116, G12C).
T1 construct: Un-tagged recombinant K-Ras G12C (1-169) at 4 μM in Buffer A; hexahistidine (cleaved yes); made in house; host or cells: Escherichia coli BL21 (DE)
Briefly: Mass spectrometric screen for extent of covalent labeling. Format: binding. The settings on record: for Labeling % (10 micM) 24h: 10 micM compound, (plate) or (single) measurement; for percent covalent labeling at 10 µM: 10 micromolar. Here is the method:
Un-tagged recombinant K-Ras G12C (1-169) at 4 μM in Buffer A was reacted with inhibitors at 200 μM or 10 μM (2% DMSO final). At 2, 6, and 24 hrs, 10 μL aliquots were removed and the reactions were stopped by addition of 1 μL 2% formic acid. The extent of modification was determined by mass spectrometry.

The mark [1] stands for this setting: 2 h, 2 hrs, read-out: Percent reduction in activity of compound at 10 micromolar relative to control (no compound), 2 hrs.
[2] abbreviates: 6 h, 6 hrs, read-out: Percent reduction in activity of compound at 10 micromolar relative to control (no compound), 6 hrs.
The mark [3] stands for this setting: 24 h, 24 hrs, read-out: Percent reduction in activity of compound at 10 micromolar relative to control (no compound), 24 hrs.

The values below come from patent publication US11008334B2, “Compositions and methods for treating cancer” (The Regents of the University of California, priority 2012, dated 2021).

Where two headings read alike, the source gives them in different places.

On to `C=CS(=O)(=O)NC1CCN(C(=O)CNc2ccc(Cl)cc2Cl)CC1` [Ras-028], for which the “Labeling % (10 micM) 24h” value was “+++ (plate) (20%< +++ <=40%)”. For the same compound, under setting [1], the percent covalent labeling at 10 µM is at most 5%. Further, the percent covalent labeling at 10 µM under setting [2] is at most 5%. Moreover, under setting [3], the percent covalent labeling at 10 µM lay within 20 to 40%. Also, the “Labeling % (10 micM) 24h” value (Table 5) is listed as “+++ (plate) (20%< +++ <=40%)”.
Regarding `C=CS(=O)(=O)NC1CCN(C(=O)COc2ccc(Cl)cc2N2CCCC2)CC1` [Ras-029], the percent covalent labeling at 10 µM by setting is: under setting [1], at most 5%; under setting [2], at most 5%; under setting [3], at most 5%.
With `C=CS(=O)(=O)NC1CCN(C(=O)COc2ccc(Cl)cc2I)CC1` [Ras-030], the percent covalent labeling at 10 µM was at most 5% under setting [1], at most 5% under setting [2] and 40 to 60% under setting [3].
Consider `C=CS(=O)(=O)NC1CCN(C(=O)COc2ccc(Cl)cc2CNC(C)=O)CC1` [Ras-031], for which the percent covalent labeling at 10 µM runs as follows: under setting [1], at most 5%; under setting [2], at most 5%; under setting [3], at most 5%.
For the compound `C=CS(=O)(=O)NC1CCN(C(=O)COc2ccc(Cl)cc2CN)CC1` [Ras-032], the percent covalent labeling at 10 µM by setting is: under setting [1], at most 5%; under setting [2], at most 5%; under setting [3], at most 5%.
On to `C=CS(=O)(=O)NC1CCN(C(=O)COc2ccc(Cl)cc2N)CC1` [Ras-033], for which the percent covalent labeling at 10 µM reads like this: under setting [1], at most 5%; under setting [2], at most 5%; under setting [3], at most 5%.
In the case of `C=CS(=O)(=O)NC1CCN(C(=O)COc2ccc(Cl)cc2N(C)C)CC1` [Ras-034], the percent covalent labeling at 10 µM is at most 5% under setting [1], at most 5% under setting [2] and at most 5% under setting [3].
Consider `C=CS(=O)(=O)NC1CCN(C(=O)COc2cc(C(N)=O)c(Cl)cc2Cl)CC1` [Ras-035], for which the percent covalent labeling at 10 µM runs as follows: under setting [1], at most 5%; under setting [2], at most 5%; under setting [3], at most 5%.
Consider `C=CS(=O)(=O)NC1CCN(C(=O)COc2cc(I)c(Cl)cc2Cl)CC1` [Ras-036], for which the percent covalent labeling at 10 µM under setting [1] is at most 5%, the percent covalent labeling at 10 µM under setting [2] was in the range of 5 to 20% and the percent covalent labeling at 10 µM under setting [3] lay in the range of 40 to 60%.
Consider `C=CS(=O)(=O)NC1CCN(C(=O)COc2cc(C(=O)OC)c(Cl)cc2Cl)CC1` [Ras-037], for which the percent covalent labeling at 10 µM was at most 5% under setting [1], at most 5% under setting [2] and 5 to 20% under setting [3].
As for `C=CS(=O)(=O)NC1CCN(C(=O)COc2cc(C(=O)O)c(Cl)cc2Cl)CC1` [Ras-038], the percent covalent labeling at 10 µM is, setting by setting: under setting [1], at most 5%; under setting [2], at most 5%; under setting [3], at most 5%.
With `C=CS(=O)(=O)NC1CCN(C(=O)COc2cc(O)c(Cl)cc2Cl)CC1` [Ras-039], the percent covalent labeling at 10 µM was at most 5% under setting [1], at most 5% under setting [2] and 5 to 20% under setting [3].
Take `C=CS(=O)(=O)NC1CCN(C(=O)COc2cc(Br)c(Cl)cc2Cl)CC1` [Ras-040]: the percent covalent labeling at 10 µM reads like this: under setting [1], at most 5%; under setting [2], at most 5%; under setting [3], 20 to 40%.
Consider `C=CS(=O)(=O)NC1CCN(C(=O)COc2ccc(Cl)cc2OC)CC1` [Ras-041], for which the percent covalent labeling at 10 µM was at most 5% under setting [1], at most 5% under setting [2] and 5 to 20% under setting [3].
`C=CS(=O)(=O)NC1CCN(C(=O)COc2ccc(Cl)cc2C=O)CC1` [Ras-042]: the percent covalent labeling at 10 µM reads like this: under setting [1], at most 5%; under setting [2], at most 5%; under setting [3], 5 to 20%.
As to `C=CS(=O)(=O)NC1CCN(C(=O)COc2cc(C(C)=O)c(Cl)cc2Cl)CC1` [Ras-043], the percent covalent labeling at 10 µM is at most 5% under setting [1], at most 5% under setting [2] and at most 5% under setting [3].
Take `C=CS(=O)(=O)NC1CCN(C(=O)COc2cc(C(C)O)c(Cl)cc2Cl)CC1` (centres unmarked) [Ras-044]: the percent covalent labeling at 10 µM runs as follows: under setting [1], at most 5%; under setting [2], at most 5%; under setting [3], 5 to 20%.
For the compound `C=CS(=O)(=O)NC1CCN(C(=O)COc2cc(-c3nn[nH]n3)c(Cl)cc2Cl)CC1` [Ras-045], the percent covalent labeling at 10 µM is at most 5% under setting [1], at most 5% under setting [2] and at most 5% under setting [3].
In the case of `C=CS(=O)(=O)NC1CCN(C(=O)COc2ccc(Cl)cc2C(=O)N2CCC(NS(=O)(=O)C=C)CC2)CC1` [Ras-046], the percent covalent labeling at 10 µM by setting is: under setting [1], at most 5%; under setting [2], at most 5%; under setting [3], at most 5%.
For `C=CS(=O)(=O)NC1CCN(C(=O)COc2cc(S(N)(=O)=O)c(Cl)cc2Cl)CC1` [Ras-047], the percent covalent labeling at 10 µM was at most 5% under setting [1], at most 5% under setting [2] and at most 5% under setting [3].
`C=CS(=O)(=O)NC1CCN(C(=O)COc2cc(OCCO)c(Cl)cc2Cl)CC1` [Ras-048]: the percent covalent labeling at 10 µM by setting is: under setting [1], at most 5%; under setting [2], at most 5%; under setting [3], 5 to 20%.
Consider `C=CS(=O)(=O)NC1CCN(C(=O)COc2cc(C(=O)NCCO)c(Cl)cc2Cl)CC1` [Ras-049], for which the percent covalent labeling at 10 µM by setting is: under setting [1], at most 5%; under setting [2], at most 5%; under setting [3], at most 5%.
Consider `C=CS(=O)(=O)NC1CCN(C(=O)COc2cc(CO)c(Cl)cc2Cl)CC1` [Ras-050], for which the percent covalent labeling at 10 µM was at most 5% under setting [1], at most 5% under setting [2] and 5 to 20% under setting [3].
As to `C=CS(=O)(=O)NC1CCN(C(=O)COc2ccc(Cl)cc2CO)CC1` [Ras-051], the percent covalent labeling at 10 µM by setting is: under setting [1], at most 5%; under setting [2], at most 5%; under setting [3], 5 to 20%.
Take `C=CS(=O)(=O)NC1CCN(C(=O)CN(C)c2cc(Cl)c(Cl)cc2I)CC1` [Ras-052]: the percent covalent labeling at 10 µM by setting is: under setting [1], at most 5%; under setting [2], at most 5%; under setting [3], 5 to 20%.
Take `C=CS(=O)(=O)NC1CCN(C(=O)COc2cc(Cl)c(Cl)cc2I)CC1` [Ras-053]: the percent covalent labeling at 10 µM runs as follows: under setting [1], at most 5%; under setting [2], 5 to 20%; under setting [3], 40 to 60%.
For `C=CS(=O)(=O)NC1CCN(C(=O)CNc2cc(Cl)c(Cl)cc2OC)CC1` [Ras-054], the percent covalent labeling at 10 µM was at most 5% under setting [1], 20 to 40% under setting [2] and above 60% under setting [3].
On to `C=CS(=O)(=O)NC1CCN(C(=O)CNc2cc(Cl)c(Cl)cc2O)CC1` [Ras-055], for which the “Labeling % (10 micM) 24h” value is “+++++ (plate) (60% < +++++)”. Also, the percent covalent labeling at 10 µM under setting [1] lay within 5 to 20%. For the same compound, under setting [2], the percent covalent labeling at 10 µM was in the range of 20 to 40%. Besides, the percent covalent labeling at 10 µM under setting [3] is above 60%. The “Labeling % (10 micM) 24h” value (Table 5) is reported as “+++++ (plate) (60% < +++++)”.
`C=CS(=O)(=O)NC1CCN(C(=O)COc2cc(-c3cn[nH]c3)c(Cl)cc2Cl)CC1` [Ras-056]: the percent covalent labeling at 10 µM runs as follows: under setting [1], at most 5%; under setting [2], at most 5%; under setting [3], at most 5%.
As for `C=CS(=O)(=O)NC1CCN(C(=O)C(C)Oc2cc(CN)c(Cl)cc2Cl)CC1` (centres unmarked) [Ras-058], the percent covalent labeling at 10 µM runs as follows: under setting [1], at most 5%; under setting [2], at most 5%; under setting [3], at most 5%.
On to `C=CS(=O)(=O)NC1CCN(C(=O)CNc2cc(Cl)c(Cl)cc2CC)CC1` [Ras-059], for which the “Labeling % (10 micM) 24h” value was “+++++ (single) (60% < +++++)”. The percent covalent labeling at 10 µM under setting [1] is at most 5%. Besides, the percent covalent labeling at 10 µM under setting [2] lay in the range of 5 to 20%. Under setting [3], the percent covalent labeling at 10 µM is above 60%. For the same compound, the “Labeling % (10 micM) 24h” value (Table 5) is listed as “+++++ (single) (60% < +++++)”.
For `C=CS(=O)(=O)NC1CCN(c2cc(-c3cc(Cl)c(Cl)cc3I)ccn2)CC1` [Ras-060], the percent covalent labeling at 10 µM by setting is: under setting [1], at most 5%; under setting [2], at most 5%; under setting [3], at most 5%.
As to `C=CS(=O)(=O)NC1CCN(C(=O)COc2cc(NS(C)(=O)=O)c(Cl)cc2Cl)CC1` [Ras-061], the percent covalent labeling at 10 µM runs as follows: under setting [1], at most 5%; under setting [2], at most 5%; under setting [3], at most 5%.
On to `C=CC(=O)N1CCN(C(=O)CNc2cc(Cl)c(Cl)cc2OC)CC1` [Ras-062], for which the “Labeling % (10 micM) 24h” value is reported as “+++ (single) (20%< +++ <=40%)”. Besides, under setting [1], the percent covalent labeling at 10 µM was at most 5%. Further, the percent covalent labeling at 10 µM under setting [2] is at most 5%. Also, the percent covalent labeling at 10 µM under setting [3] is 20 to 40%. Besides, the “Labeling % (10 micM) 24h” value (Table 5) is recorded as “+++ (single) (20%< +++ <=40%)”.
As for `C=CS(=O)(=O)NC1CCN(C(=O)COc2cc(Cl)c(Cl)cc2O)CC1` [Ras-063], the percent covalent labeling at 10 µM is, setting by setting: under setting [1], at most 5%; under setting [2], 5 to 20%; under setting [3], 20 to 40%.
As to `C=CS(=O)(=O)NC1CCN(C(=O)CNc2cc(OC)c(Cl)cc2OC)CC1` [Ras-064], the percent covalent labeling at 10 µM reads like this: under setting [1], at most 5%; under setting [2], at most 5%; under setting [3], 20 to 40%.
As to `C=CS(=O)(=O)NC1CCN(C(=O)CNc2cc(C(F)(F)F)c(Cl)cc2OC)CC1` [Ras-065], the percent covalent labeling at 10 µM reads like this: under setting [1], at most 5%; under setting [2], 5 to 20%; under setting [3], 20 to 40%.
